What was measured:
Nav 1.7 = Nav 1.7 (Homo sapiens (Human), UniProt Q15858); assay: Nav 1.7 in vitro PX assay (PatchXpress whole cell voltage clamp); format: cell-based; details: 293 cells, human Nav1.7, partially inactivated state; read-out: Nav1.7 PX IC50 IP
How it was run: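 Partially inactivated channel state (holding potential for 20–50% inactivation) probed in human Nav1.7-transfected 293 cells by automated patch clamp, test pulse −10 mV for 20 msec.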

Nav 1.5 = Nav 1.5 (Homo sapiens (Human), UniProt Q14524); assay: Nav 1.5 in vitro PX assay (PatchXpress whole cell voltage clamp); format: cell-based; details: 293 cells stably transfected with Nav 1.5; second part of table; read-out: Nav1.5 PX IC50
Sequence of Nav 1.5 (Q14524 whole entry): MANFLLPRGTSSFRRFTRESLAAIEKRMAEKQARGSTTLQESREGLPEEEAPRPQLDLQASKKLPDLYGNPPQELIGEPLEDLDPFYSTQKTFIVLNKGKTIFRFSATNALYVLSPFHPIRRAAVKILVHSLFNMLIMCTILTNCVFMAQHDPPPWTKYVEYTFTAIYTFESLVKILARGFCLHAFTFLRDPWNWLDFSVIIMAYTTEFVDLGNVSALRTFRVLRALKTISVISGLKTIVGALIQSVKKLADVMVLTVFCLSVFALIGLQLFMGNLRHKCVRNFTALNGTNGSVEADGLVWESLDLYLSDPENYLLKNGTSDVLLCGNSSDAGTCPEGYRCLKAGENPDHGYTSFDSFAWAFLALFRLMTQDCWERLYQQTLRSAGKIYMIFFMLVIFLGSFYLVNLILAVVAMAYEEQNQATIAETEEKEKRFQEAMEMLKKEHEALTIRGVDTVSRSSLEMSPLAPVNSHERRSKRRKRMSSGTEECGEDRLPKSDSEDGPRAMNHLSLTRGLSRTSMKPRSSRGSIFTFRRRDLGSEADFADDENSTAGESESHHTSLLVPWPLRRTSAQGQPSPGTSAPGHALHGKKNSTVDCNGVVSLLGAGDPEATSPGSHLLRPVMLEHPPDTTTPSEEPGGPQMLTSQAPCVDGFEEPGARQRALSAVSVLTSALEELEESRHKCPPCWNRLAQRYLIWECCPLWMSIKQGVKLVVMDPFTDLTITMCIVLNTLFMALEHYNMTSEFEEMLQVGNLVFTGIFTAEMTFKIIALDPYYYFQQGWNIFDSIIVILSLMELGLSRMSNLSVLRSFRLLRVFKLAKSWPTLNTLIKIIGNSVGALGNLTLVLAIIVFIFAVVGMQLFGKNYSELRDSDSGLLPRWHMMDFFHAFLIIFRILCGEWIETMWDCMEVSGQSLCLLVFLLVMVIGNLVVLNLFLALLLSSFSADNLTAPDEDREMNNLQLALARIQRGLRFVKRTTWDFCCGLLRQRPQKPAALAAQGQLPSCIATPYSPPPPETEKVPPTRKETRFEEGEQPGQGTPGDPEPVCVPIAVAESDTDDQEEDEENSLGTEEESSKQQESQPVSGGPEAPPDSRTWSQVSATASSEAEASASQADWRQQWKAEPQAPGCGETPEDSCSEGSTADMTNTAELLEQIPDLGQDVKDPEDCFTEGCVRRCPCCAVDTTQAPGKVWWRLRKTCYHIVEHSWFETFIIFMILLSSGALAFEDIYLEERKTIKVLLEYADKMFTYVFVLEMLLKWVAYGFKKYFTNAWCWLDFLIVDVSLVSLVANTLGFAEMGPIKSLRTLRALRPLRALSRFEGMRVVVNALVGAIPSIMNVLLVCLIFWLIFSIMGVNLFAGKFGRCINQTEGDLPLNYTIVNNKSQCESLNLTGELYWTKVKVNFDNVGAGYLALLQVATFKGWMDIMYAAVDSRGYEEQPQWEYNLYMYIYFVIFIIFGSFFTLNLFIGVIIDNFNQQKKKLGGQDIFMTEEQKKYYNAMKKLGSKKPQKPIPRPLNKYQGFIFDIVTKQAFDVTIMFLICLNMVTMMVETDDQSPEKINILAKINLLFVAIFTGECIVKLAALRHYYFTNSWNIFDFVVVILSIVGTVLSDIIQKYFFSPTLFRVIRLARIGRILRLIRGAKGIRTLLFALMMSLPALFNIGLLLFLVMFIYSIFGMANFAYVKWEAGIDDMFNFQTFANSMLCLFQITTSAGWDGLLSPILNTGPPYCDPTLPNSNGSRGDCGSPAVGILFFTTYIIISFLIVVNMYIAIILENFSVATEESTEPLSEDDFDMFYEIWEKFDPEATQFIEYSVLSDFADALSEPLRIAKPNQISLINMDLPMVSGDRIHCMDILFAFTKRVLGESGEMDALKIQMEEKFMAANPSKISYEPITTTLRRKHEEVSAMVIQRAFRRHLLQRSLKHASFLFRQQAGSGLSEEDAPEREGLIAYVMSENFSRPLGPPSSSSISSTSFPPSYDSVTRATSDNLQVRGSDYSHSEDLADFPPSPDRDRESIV
How it was run: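 HEK293 cells stably expressing Nav 1.5, whole-cell voltage clamp held at −50 mV; 20 msec test pulses to 0 mV at 0.1 Hz, each preceded by a step to −120 mV.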

Sequence of Nav 1.7 (Q15858 whole entry): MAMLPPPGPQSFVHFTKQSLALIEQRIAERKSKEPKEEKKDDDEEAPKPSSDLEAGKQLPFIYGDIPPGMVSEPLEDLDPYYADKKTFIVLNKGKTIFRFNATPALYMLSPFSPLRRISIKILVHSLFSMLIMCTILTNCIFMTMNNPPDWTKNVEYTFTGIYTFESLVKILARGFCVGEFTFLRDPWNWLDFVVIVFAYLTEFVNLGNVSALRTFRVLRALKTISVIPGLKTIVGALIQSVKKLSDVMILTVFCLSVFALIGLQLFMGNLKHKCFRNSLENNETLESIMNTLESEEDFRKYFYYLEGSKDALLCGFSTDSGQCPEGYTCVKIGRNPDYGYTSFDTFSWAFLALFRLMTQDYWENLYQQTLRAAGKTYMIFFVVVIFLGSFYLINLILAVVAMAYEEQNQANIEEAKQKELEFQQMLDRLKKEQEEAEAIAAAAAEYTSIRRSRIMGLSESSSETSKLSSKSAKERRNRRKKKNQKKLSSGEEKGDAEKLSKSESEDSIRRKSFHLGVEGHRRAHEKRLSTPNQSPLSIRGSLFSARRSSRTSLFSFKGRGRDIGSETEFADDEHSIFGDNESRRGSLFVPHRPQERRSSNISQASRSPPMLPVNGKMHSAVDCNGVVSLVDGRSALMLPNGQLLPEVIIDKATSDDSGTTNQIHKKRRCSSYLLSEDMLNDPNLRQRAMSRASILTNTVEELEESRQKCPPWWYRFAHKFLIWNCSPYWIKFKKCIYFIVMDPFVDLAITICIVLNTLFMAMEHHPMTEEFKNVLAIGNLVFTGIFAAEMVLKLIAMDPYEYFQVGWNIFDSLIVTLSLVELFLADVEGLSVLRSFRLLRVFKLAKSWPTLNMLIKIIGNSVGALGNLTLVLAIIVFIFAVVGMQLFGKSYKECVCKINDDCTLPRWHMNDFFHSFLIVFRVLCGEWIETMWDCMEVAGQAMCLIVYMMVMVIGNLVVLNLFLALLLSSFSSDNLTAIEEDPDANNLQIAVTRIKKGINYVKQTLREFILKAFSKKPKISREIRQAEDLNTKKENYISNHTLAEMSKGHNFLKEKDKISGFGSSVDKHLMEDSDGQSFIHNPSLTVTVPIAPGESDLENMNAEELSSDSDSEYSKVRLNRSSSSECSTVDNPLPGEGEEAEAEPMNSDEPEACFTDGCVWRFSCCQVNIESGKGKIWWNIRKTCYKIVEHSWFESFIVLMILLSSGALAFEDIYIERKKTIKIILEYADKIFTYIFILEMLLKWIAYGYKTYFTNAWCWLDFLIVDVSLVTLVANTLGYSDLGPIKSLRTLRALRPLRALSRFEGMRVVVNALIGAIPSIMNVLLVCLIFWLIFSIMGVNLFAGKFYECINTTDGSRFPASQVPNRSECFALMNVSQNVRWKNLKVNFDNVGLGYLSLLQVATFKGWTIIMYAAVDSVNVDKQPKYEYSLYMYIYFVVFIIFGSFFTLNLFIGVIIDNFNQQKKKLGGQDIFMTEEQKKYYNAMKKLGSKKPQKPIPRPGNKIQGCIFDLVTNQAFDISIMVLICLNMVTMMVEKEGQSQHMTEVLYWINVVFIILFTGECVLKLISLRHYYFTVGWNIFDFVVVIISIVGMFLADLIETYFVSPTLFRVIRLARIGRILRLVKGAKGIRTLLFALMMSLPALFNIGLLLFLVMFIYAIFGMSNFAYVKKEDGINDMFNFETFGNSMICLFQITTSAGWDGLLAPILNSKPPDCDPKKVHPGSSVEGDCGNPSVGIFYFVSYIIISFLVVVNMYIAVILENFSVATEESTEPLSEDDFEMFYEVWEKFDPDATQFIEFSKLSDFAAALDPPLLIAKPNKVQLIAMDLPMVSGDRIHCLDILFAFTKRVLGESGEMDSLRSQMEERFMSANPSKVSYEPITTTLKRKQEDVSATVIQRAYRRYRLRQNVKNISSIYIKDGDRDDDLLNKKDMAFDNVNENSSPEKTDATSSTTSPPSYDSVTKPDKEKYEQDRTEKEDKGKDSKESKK

## COc1cc(-c2ccc(F)c(F)c2)c(F)cc1-c1nccc2cc(S(=O)(=O)Nc3nncs3)ccc12 [Example 365, N-(1,3,4-THIADIAZOL-2-YL)-1-(2,3′,4′-TRIFLUORO-5-METHOXY-[1,1′-BIPHENYL]-4-YL)ISOQUINOLINE-6-SULFONAMIDE]
Nav 1.7
  IC50: 41 nM
Nav 1.5
  IC50: > 30000 nM

## COc1cc(C(F)F)ccc1-c1nc(C)nc2cc(S(=O)(=O)Nc3nccs3)ccc12 [Example 515, 4-(4-(difluoromethyl)-2-methoxyphenyl)-2-methyl-N-(thiazol-2-yl)quinazoline-7-sulfonamide]
Nav 1.7
  IC50: 478 nM
Nav 1.5
  IC50: > 30000 nM

## COc1cc(C(F)(F)F)ccc1-c1nccc2cc(S(=O)(=O)Nc3cscn3)ccc12 [Example 497, 1-(2-METHOXY-4-(TRIFLUOROMETHYL)PHENYL)-N-(THIAZOL-4-YL)ISOQUINOLINE-6-SULFONAMIDE]
Nav 1.7
  IC50: 786 nM
Nav 1.5
  IC50: > 30000 nM

## COc1cc(-c2cccc(F)c2)c(F)cc1-c1nccc2cc(S(=O)(=O)Nc3nncs3)ccc12 [Example 366, 1-(2,3′-DIFLUORO-5-METHOXY-[1,1′-BIPHENYL]-4-YL)-N-(1,3,4-THIADIAZOL-2-YL)ISOQUINOLINE-6-SULFONAMIDE]
Nav 1.7
  IC50: 48 nM
Nav 1.5
  IC50: > 30000 nM

## COc1nc(-c2ccc(C(F)(F)F)cc2OC)c2ccc(S(=O)(=O)Nc3nccs3)cc2n1 [Example 511, 2-methoxy-4-(2-methoxy-4-(trifluoromethyl)phenyl)-N-(thiazol-2-yl)quinazoline-7-sulfonamide]
Nav 1.7
  IC50: 257 nM
Nav 1.5
  IC50: > 30000 nM

## COc1cc(C(F)F)c(C2CC2)cc1-c1nccc2cc(S(=O)(=O)Nc3ccncn3)ccc12 [Example 459, 1-(5-CYCLOPROPYL-4-(DIFLUOROMETHYL)-2-METHOXYPHENYL)-N-(PYRIMIDIN-4-YL)ISOQUINOLINE-6-SULFONAMIDE]
Nav 1.7
  IC50: 532 nM
Nav 1.5
  IC50: > 30000 nM

## COc1cc(-c2cccc(F)c2)c(Cl)cc1-c1nccc2cc(S(=O)(=O)Nc3ccon3)ccc12 [Example 335, 1-(2-CHLORO-3′-FLUORO-5-METHOXY-[1,1′-BIPHENYL]-4-YL)-N-(ISOXAZOL-3-YL)ISOQUINOLINE-6-SULFONAMIDE]
Nav 1.7
  IC50: 52 nM
Nav 1.5
  IC50: > 30000 nM

## COc1cc(-c2cc(F)cc(F)c2)ccc1-c1nccc2cc(S(=O)(=O)Nc3nncs3)ccc12 [Example 355, 1-(3′,5′-DIFLUORO-3-METHOXY-[1,1′-BIPHENYL]-4-YL)-N-(1,3,4-THIADIAZOL-2-YL)ISOQUINOLINE-6-SULFONAMIDE 2,2,2-TRIFLUOROACETATE]
Nav 1.7
  IC50: 48 nM
Nav 1.5
  IC50: > 30000 nM

## COc1cc(-c2cccc(F)c2)c(C#N)cc1-c1nccc2cc(S(=O)(=O)Nc3ccon3)ccc12 [Example 342, 1-(2-CYANO-3′-FLUORO-5-METHOXY-[1,1′-BIPHENYL]-4-YL)-N-(ISOXAZOL-3-YL)ISOQUINOLINE-6-SULFONAMIDE]
Nav 1.7
  IC50: 122 nM
Nav 1.5
  IC50: > 30000 nM

## COc1cc(-c2ccc(-c3nccc4cc(S(=O)(=O)Nc5ccncn5)ccc34)c(OC)c2)ccc1F [Example 484, 1-(4′-FLUORO-3,3′-DIMETHOXY-[1,1′-BIPHENYL]-4-YL)-N-(PYRIMIDIN-4-YL)ISOQUINOLINE-6-SULFONAMIDE]
Nav 1.7
  IC50: 177 nM
Nav 1.5
  IC50: > 30000 nM

## COc1cc(-c2ccc(F)c(C)c2)ccc1-c1nccc2cc(S(=O)(=O)Nc3ccncn3)ccc12 [Example 488, 1-(4′-FLUORO-3-METHOXY-3′-METHYL-[1,1′-BIPHENYL]-4-YL)-N-(PYRIMIDIN-4-YL)ISOQUINOLINE-6-SULFONAMIDE]
Nav 1.7
  IC50: 99 nM
Nav 1.5
  IC50: > 30000 nM

## COc1ccccc1-c1nccc2cc(S(=O)(=O)Nc3nccs3)ccc12 [Example 406, 1-(2-METHOXYPHENYL)-N-(THIAZOL-2-YL)ISOQUINOLINE-6-SULFONAMIDE]
Nav 1.7
  IC50: 456 nM
Nav 1.5
  IC50: > 30000 nM

## COc1cc(-c2cc(F)cc(F)c2)c(C#N)cc1-c1nccc2cc(S(=O)(=O)Nc3nncs3)ccc12 [Example 338, 1-(2-CYANO-3′,5′-DIFLUORO-5-METHOXY-[1,1′-BIPHENYL]-4-YL)-N-(1,3,4-THIADIAZOL-2-YL)ISOQUINOLINE-6-SULFONAMIDE]
Nav 1.7
  IC50: 29 nM
Nav 1.5
  IC50: > 30000 nM

## COc1cc(C(F)(F)F)ccc1-c1cnnc2cc(S(=O)(=O)Nc3nccs3)ccc12 [Example 259, 4-(2-METHOXY-4-(TRIFLUOROMETHYL)PHENYL)-N-(THIAZOL-2-YL)CINNOLINE-7-SULFONAMIDE]
Nav 1.7
  IC50: 320 nM
Nav 1.5
  IC50: > 30000 nM

## COc1cc(-c2cccc(C)c2)ccc1-c1nccc2cc(S(=O)(=O)Nc3ccncn3)ccc12 [Example 442, 1-(3-METHOXY-3′-METHYL-[1,1′-BIPHENYL]-4-YL)-N-(PYRIMIDIN-4-YL)ISOQUINOLINE-6-SULFONAMIDE]
Nav 1.7
  IC50: 87 nM
Nav 1.5
  IC50: > 30000 nM

## COc1cc(Cl)c(C#N)cc1-c1nccc2cc(S(=O)(=O)Nc3nncs3)ccc12 [Example 337, 1-(4-CHLORO-5-CYANO-2-METHOXYPHENYL)-N-(1,3,4-THIADIAZOL-2-YL)ISOQUINOLINE-6-SULFONAMIDE]
Nav 1.7
  IC50: 388 nM
Nav 1.5
  IC50: > 30000 nM

## COc1cc(-c2cc(F)cc(Cl)c2)ccc1-c1nccc2cc(S(=O)(=O)Nc3ccncn3)ccc12 [Example 491, 1-(3′-CHLORO-5′-FLUORO-3-METHOXY-[1,1′-BIPHENYL]-4-YL)-N-(PYRIMIDIN-4-YL)ISOQUINOLINE-6-SULFONAMIDE]
Nav 1.7
  IC50: 101 nM
Nav 1.5
  IC50: > 30000 nM

## N#CCOc1cc(Cl)ccc1-c1nccc2cc(S(=O)(=O)Nc3nccs3)ccc12 [Example 373, 1-(4-CHLORO-2-(CYANOMETHOXY)PHENYL)-N-(THIAZOL-2-YL)ISOQUINOLINE-6-SULFONAMIDE 2,2,2-TRIFLUOROACETATE]
Nav 1.7
  IC50: 153 nM
Nav 1.5
  IC50: > 30000 nM

## COc1cc(-c2cccc(F)c2)c(Cl)cc1-c1ncnc2cc(S(=O)(=O)Nc3nncs3)ccc12 [Example 522, 4-(2-CHLORO-3′-FLUORO-5-METHOXY-[1,1′-BIPHENYL]-4-YL)-N-(1,3,4-THIADIAZOL-2-YL)QUINAZOLINE-7-SULFONAMIDE]
Nav 1.7
  IC50: 34 nM
Nav 1.5
  IC50: > 30000 nM

## N#CCOc1ccccc1-c1ncc(F)c2cc(S(=O)(=O)Nc3nccs3)ccc12 [Example 398, 1-(2-(CYANOMETHOXY)PHENYL)-4-FLUORO-N-(THIAZOL-2-YL)ISOQUINOLINE-6-SULFONAMIDE]
Nav 1.7
  IC50: 197 nM
Nav 1.5
  IC50: > 30000 nM

## COc1cc(-c2c(F)cccc2F)ccc1-c1nccc2cc(S(=O)(=O)Nc3ccncn3)ccc12 [Example 447, 1-(2′,6′-DIFLUORO-3-METHOXY-[1,1′-BIPHENYL]-4-YL)-N-(PYRIMIDIN-4-YL)ISOQUINOLINE-6-SULFONAMIDE]
Nav 1.7
  IC50: 237 nM
Nav 1.5
  IC50: > 30000 nM

## COc1ccc(-c2cccc(C(F)(F)F)c2)cc1-c1nccc2cc(S(=O)(=O)Nc3nncs3)ccc12 [Example 344, 1-(4-METHOXY-3′-(TRIFLUOROMETHYL)-[1,1′-BIPHENYL]-3-YL)-N-(1,3,4-THIADIAZOL-2-YL)ISOQUINOLINE-6-SULFONAMIDE]
Nav 1.7
  IC50: 34 nM
Nav 1.5
  IC50: > 30000 nM

## COc1cc(C#N)ccc1-c1cccc2cc(S(=O)(=O)Nc3ncns3)ccc12 [Example 330]
Nav 1.7
  IC50: 118 nM
Nav 1.5
  IC50: > 30000 nM

## COc1cc(-c2ccccc2C)ccc1-c1nccc2cc(S(=O)(=O)Nc3ccncn3)ccc12 [Example 441, 1-(3-METHOXY-2′-METHYL-[1,1′-BIPHENYL]-4-YL)-N-(PYRIMIDIN-4-YL)ISOQUINOLINE-6-SULFONAMIDE]
Nav 1.7
  IC50: 77 nM
Nav 1.5
  IC50: > 30000 nM

## COc1cc(Cl)ccc1-c1ccc(-c2nccc3cc(S(=O)(=O)Nc4ccncn4)ccc23)c(OC)c1 [Example 460, 1-(4′-CHLORO-2′,3-DIMETHOXY-[1,1′-BIPHENYL]-4-YL)-N-(PYRIMIDIN-4-YL)ISOQUINOLINE-6-SULFONAMIDE]
Nav 1.7
  IC50: 106 nM
Nav 1.5
  IC50: > 30000 nM

## COc1cc(-c2cccc(C(F)(F)F)c2)ccc1-c1nccc2cc(S(=O)(=O)Nc3ccncn3)ccc12 [Example 351, 1-(3-METHOXY-3′-(TRIFLUOROMETHYL)-[1,1′-BIPHENYL]-4-YL)-N-(PYRIMIDIN-4-YL)ISOQUINOLINE-6-SULFONAMIDE]
Nav 1.7
  IC50: 76 nM
Nav 1.5
  IC50: 26600 nM

## COc1cccc(-c2ccc(-c3nccc4cc(S(=O)(=O)Nc5ccncn5)ccc34)c(OC)c2)c1 [Example 467, 1-(3,3′-DIMETHOXY-[1,1′-BIPHENYL]-4-YL)-N-(PYRIMIDIN-4-YL)ISOQUINOLINE-6-SULFONAMIDE]
Nav 1.7
  IC50: 204 nM
Nav 1.5
  IC50: > 30000 nM

## COc1cc(C(F)(F)F)ccc1-c1nc(C)nc2cc(S(=O)(=O)Nc3nccs3)ccc12 [Example 510, 4-(2-METHOXY-4-(TRIFLUOROMETHYL)PHENYL)-2-METHYL-N-(THIAZOL-2-YL)QUINAZOLINE-7-SULFONAMIDE]
Nav 1.7
  IC50: 464 nM
Nav 1.5
  IC50: > 30000 nM

## COc1cc(C(F)(F)F)ccc1-c1ncc(O)c2cc(S(=O)(=O)Nc3nccs3)ccc12 [Example 232, 4-HYDROXY-1-(2-METHOXY-4-(TRIFLUOROMETHYL)PHENYL)-N-(THIAZOL-2-YL)ISOQUINOLINE-6-SULFONAMIDE]
Nav 1.7
  IC50: 380 nM
Nav 1.5
  IC50: 20400 nM

## COc1cc(-c2ccc(C)cc2)ccc1-c1nccc2cc(S(=O)(=O)Nc3ccncn3)ccc12 [Example 443, 1-(3-METHOXY-4′-METHYL-[1,1′-BIPHENYL]-4-YL)-N-(PYRIMIDIN-4-YL)ISOQUINOLINE-6-SULFONAMIDE]
Nav 1.7
  IC50: 280 nM
Nav 1.5
  IC50: > 30000 nM

## Cc1cc(-c2cccc(F)c2)ccc1-c1nccc2cc(S(=O)(=O)Nc3ccncn3)ccc12 [Example 358, 1-(3′-FLUORO-3-METHYL-[1,1′-BIPHENYL]-4-YL)-N-(PYRIMIDIN-4-YL)ISOQUINOLINE-6-SULFONAMIDE]
Nav 1.7
  IC50: 394 nM
Nav 1.5
  IC50: > 30000 nM

## COc1cc(Cl)ccc1-c1ncnc2cc(S(=O)(=O)Nc3ncns3)ccc12 [Example 524, 4-(4-CHLORO-2-METHOXYPHENYL)-N-(1,2,4-THIADIAZOL-5-YL)QUINAZOLINE-7-SULFONAMIDE]
Nav 1.7
  IC50: 100 nM
Nav 1.5
  IC50: > 30000 nM

## COc1ccc(-c2cccc(C(F)(F)F)c2)cc1-c1nccc2cc(S(=O)(=O)Nc3ccncn3)ccc12 [Example 349, 1-(4-METHOXY-3′-(TRIFLUOROMETHYL)-[1,1′-BIPHENYL]-3-YL)-N-(PYRIMIDIN-4-YL)ISOQUINOLINE-6-SULFONAMIDE]
Nav 1.7
  IC50: 38 nM
Nav 1.5
  IC50: > 30000 nM
